From patent publication US20230278972A1, “SUBSTITUTED HALOALKYL SULFONANILIDE HERBICIDES” (FMC Corporation, priority 2020, published 2023)

What was measured:
Type in all cases: in vivo
[1] = tested on: ragweed (common ragweed, Ambrosia artemisiifolia); assay: Test A preemergence, ragweed; conditions: Preemergence; for Plant response rating, Ragweed: 125 g ai/ha, visual injury, 0 to 100 scale (0 no effect, 100 complete control), approx. 10 days; for Ragweed plant response rating: 500 g ai/ha, visual injury on 0 to 100 scale (0 no effect, 100 complete control), approximately 10 days
Method in brief: (§1)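 Formulated with a surfactant in a non-phytotoxic solvent, compounds are applied to loam–sand pots, either to bare soil immediately after seeding (preemergence) or to seedlings of 2 to 10 cm bearing one to two leaves (postemergence).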

[2] = tested on: barnyardgrass (Echinochloa crus-galli); assay: Test A preemergence, barnyardgrass; conditions: Preemergence, 0 to 100 scale (0 no effect, 100 complete control)
Method in brief: as §1

kochia (Bassia scoparia) [3] = assay: Test A preemergence, kochia; conditions: Preemergence; for Plant response rating, Kochia: 125 g ai/ha, visual injury, 0 to 100 scale (0 no effect, 100 complete control), approx. 10 days; for Kochia plant response rating: 500 g ai/ha, visual injury on 0 to 100 scale (0 no effect, 100 complete control), approximately 10 days
Method in brief: as §1

corn (Zea mays) = assay: Test A postemergence, corn; conditions: Postemergence, 0 to 100 scale (0 no effect, 100 complete control); for Plant response rating, Corn: 125 g ai/ha; for Corn plant response rating: 500 g ai/ha, visual injury vs untreated controls after approx. 10 days
Method in brief: as §1

[4] = tested on: pigweed (Amaranthus retroflexus); assay: Test A postemergence, pigweed; conditions: Postemergence, 0 to 100 scale (0 no effect, 100 complete control); for Plant response rating, Pigweed: 125 g ai/ha; for Pigweed plant response rating: 500 g ai/ha, visual injury vs untreated controls after approx. 10 days
Method in brief: as §1

[5] = tested on: Foxtail, Giant (giant foxtail, Setaria faberi); assay: Test A postemergence, Foxtail, Giant; conditions: Postemergence, 0 to 100 scale (0 no effect, 100 complete control); for Plant response rating, Foxtail, Giant: 125 g ai/ha; for Foxtail, Giant plant response rating: 500 g ai/ha, visual injury vs untreated controls after approx. 10 days
Method in brief: as §1

[6] = tested on: barnyardgrass (Echinochloa crus-galli); assay: Test A postemergence, barnyardgrass; conditions: Postemergence, 0 to 100 scale (0 no effect, 100 complete control); for Plant response rating, Barnyardgrass: 125 g ai/ha; for Barnyardgrass plant response rating: 500 g ai/ha, visual injury vs untreated controls after approx. 10 days
Method in brief: (§2)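 Barnyardgrass, wheat and galium were treated postemergence at the one- to two-leaf stage (2 to 10 cm) with chemicals formulated in non-phytotoxic solvent plus surfactant, grown in loam soil–sand pots. Pigweed was sown in the same blend and given a preemergence directed soil spray.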

[7] = tested on: pigweed (Amaranthus retroflexus); assay: Test A preemergence, pigweed; conditions: for Plant response rating, Pigweed: 125 g ai/ha, visual injury, 0 to 100 scale (0 no effect, 100 complete control), approx. 10 days; for Pigweed plant response rating: 500 g ai/ha, visual injury on 0 to 100 scale (0 no effect, 100 complete control), approximately 10 days
Method in brief: as §2

[8] = tested on: galium (catchweed bedstraw, Galium aparine); assay: Test A postemergence, galium; conditions: Postemergence, 0 to 100 scale (0 no effect, 100 complete control); for Plant response rating, Galium: 125 g ai/ha; for Galium plant response rating: 500 g ai/ha, visual injury vs untreated controls after approx. 10 days
Method in brief: as §2

[9] = tested on: blackgrass (Alopecurus myosuroides); assay: Test A postemergence, blackgrass; conditions: Postemergence, 0 to 100 scale (0 no effect, 100 complete control); for Plant response rating, Blackgrass: 125 g ai/ha; for Blackgrass plant response rating: 500 g ai/ha, visual injury vs untreated controls after approx. 10 days
Method in brief: as §1

[10] = tested on: Foxtail, Giant (giant foxtail, Setaria faberi); assay: Test A preemergence, Foxtail, Giant; conditions: Preemergence; for Plant response rating, Foxtail, Giant: 125 g ai/ha, visual injury, 0 to 100 scale (0 no effect, 100 complete control), approx. 10 days; for Foxtail, Giant plant response rating: 500 g ai/ha, visual injury on 0 to 100 scale (0 no effect, 100 complete control), approximately 10 days
Method in brief: as §1

[11] = tested on: Ryegrass, Italian (Italian ryegrass, Lolium multiflorum); assay: Test A postemergence, Ryegrass, Italian; conditions: Postemergence, 0 to 100 scale (0 no effect, 100 complete control); for Plant response rating, Ryegrass, Italian: 125 g ai/ha; for Ryegrass, Italian plant response rating: 500 g ai/ha, visual injury vs untreated controls after approx. 10 days
Method in brief: as §1

[12] = tested on: ragweed (common ragweed, Ambrosia artemisiifolia); assay: Test A postemergence, ragweed; conditions: Postemergence, 0 to 100 scale (0 no effect, 100 complete control); for Plant response rating, Ragweed: 125 g ai/ha; for Ragweed plant response rating: 500 g ai/ha, visual injury vs untreated controls after approx. 10 days
Method in brief: as §1

kochia (Bassia scoparia) [13] = assay: Test A postemergence, kochia; conditions: Postemergence, 0 to 100 scale (0 no effect, 100 complete control); for Plant response rating, Kochia: 125 g ai/ha; for Kochia plant response rating: 500 g ai/ha, visual injury vs untreated controls after approx. 10 days
Method in brief: as §1

[14] = tested on: Ryegrass, Italian (Italian ryegrass, Lolium multiflorum); assay: Test A preemergence, Ryegrass, Italian; conditions: Preemergence; for Plant response rating, Ryegrass, Italian: 125 g ai/ha, visual injury, 0 to 100 scale (0 no effect, 100 complete control), approx. 10 days; for Ryegrass, Italian plant response rating: 500 g ai/ha, visual injury on 0 to 100 scale (0 no effect, 100 complete control), approximately 10 days
Method in brief: as §1

[15] = tested on: wheat (Triticum aestivum); assay: Test A postemergence, wheat; conditions: Postemergence, 0 to 100 scale (0 no effect, 100 complete control); for Plant response rating, Wheat: 125 g ai/ha; for Wheat plant response rating: 500 g ai/ha, visual injury vs untreated controls after approx. 10 days
Method in brief: as §2

[16] = 125 g ai/ha, visual injury, approx. 10 days

Row | Compound | Plant response rating, Ragweed [1] | Ragweed plant response rating [1] | Plant response rating, Barnyardgrass [2, 16] | Plant response rating, Barnyardgrass ([2]; 500 g ai/ha) | Plant response rating, Kochia (kochia (Bassia scoparia) [3]) | Kochia plant response rating (kochia (Bassia scoparia) [3]) | Plant response rating, Corn (corn (Zea mays)) | Corn plant response rating (corn (Zea mays)) | Plant response rating, Pigweed [4] | Pigweed plant response rating [4] | Plant response rating, Foxtail, Giant [5] | Foxtail, Giant plant response rating [5] | Plant response rating, Barnyardgrass [6] | Barnyardgrass plant response rating [6] | Plant response rating, Pigweed [7] | Pigweed plant response rating [7] | Plant response rating, Galium [8] | Galium plant response rating [8] | Plant response rating, Blackgrass [9] | Blackgrass plant response rating [9] | further results
1 | Cc1cc(F)c(C(=O)N2CCC(C#N)CC2)cc1NS(=O)(=O)C(F)(F)F [Compound 236] | 50 | 80 | 0 | 0 | 20 | 70 | 0 | 20 | 40 | 60 | 20 | 80 | 50 | 60 | 60 | 90 | 40 | 70 | 0 | 20 | Plant response rating, Foxtail, Giant [10]: 30; Foxtail, Giant plant response rating [10]: 60; Plant response rating, Ryegrass, Italian [11]: 30; Ryegrass, Italian plant response rating [11]: 60; Plant response rating, Ragweed [12]: 40; Ragweed plant response rating [12]: 80; Plant response rating, Kochia (kochia (Bassia scoparia) [13]): 30; Kochia plant response rating (kochia (Bassia scoparia) [13]): 50; Plant response rating, Ryegrass, Italian [14]: 20; Ryegrass, Italian plant response rating [14]: 60; Plant response rating, Wheat [15]: 0; Wheat plant response rating [15]: 0
2 | Cc1cc(F)c(C(=O)N2CCOCC2)cc1N(S(=O)(=O)C(F)(F)F)S(=O)(=O)C(F)(F)F [Compound 237] | 30 | 80 | 40 | 30 | 90 | 90 | 0 | 20 | 30 | 60 | 20 | 40 | 20 | 40 | 80 | 100 | 0 | 50 | 0 | 0 | Plant response rating, Foxtail, Giant [10]: 20; Foxtail, Giant plant response rating [10]: 40; Plant response rating, Ryegrass, Italian [11]: 40; Ryegrass, Italian plant response rating [11]: 40; Plant response rating, Ragweed [12]: 50; Ragweed plant response rating [12]: 80; Plant response rating, Kochia (kochia (Bassia scoparia) [13]): 70; Kochia plant response rating (kochia (Bassia scoparia) [13]): 90; Plant response rating, Ryegrass, Italian [14]: 20; Ryegrass, Italian plant response rating [14]: 50; Plant response rating, Wheat [15]: 0; Wheat plant response rating [15]: 0
3 | Cc1cc(F)c(C(=O)N2CC(C)OC(C)C2)cc1NS(=O)(=O)C(F)(F)F (centres unmarked) [Compound 238] | 20 | 90 | 0 | 0 | 80 | 60 | 0 | 0 | 30 | 80 | 30 | 70 | 0 | 60 | 20 | 80 | 80 | 80 | 0 | 30 | Plant response rating, Foxtail, Giant [10]: 30; Foxtail, Giant plant response rating [10]: 60; Plant response rating, Ryegrass, Italian [11]: 30; Ryegrass, Italian plant response rating [11]: 70; Plant response rating, Ragweed [12]: 60; Ragweed plant response rating [12]: 80; Plant response rating, Kochia (kochia (Bassia scoparia) [13]): 20; Kochia plant response rating (kochia (Bassia scoparia) [13]): 30; Plant response rating, Ryegrass, Italian [14]: 60; Ryegrass, Italian plant response rating [14]: 90; Plant response rating, Wheat [15]: 60; Wheat plant response rating [15]: 70
4 | Cc1cc(F)c(C(=O)N2CCC(C#N)CC2)cc1N(S(=O)(=O)C(F)(F)F)S(=O)(=O)C(F)(F)F [Compound 239] | 20 | 70 | 0 | 20 | 30 | 80 | 0 | 10 | 20 | 50 | 0 | 30 | 0 | 0 | 60 | 90 | 0 | 40 | 0 | 0 | Plant response rating, Foxtail, Giant [10]: 20; Foxtail, Giant plant response rating [10]: 60; Plant response rating, Ryegrass, Italian [11]: 0; Ryegrass, Italian plant response rating [11]: 0; Plant response rating, Ragweed [12]: 0; Ragweed plant response rating [12]: 0; Plant response rating, Kochia (kochia (Bassia scoparia) [13]): 0; Kochia plant response rating (kochia (Bassia scoparia) [13]): 10; Plant response rating, Ryegrass, Italian [14]: 0; Ryegrass, Italian plant response rating [14]: 30; Plant response rating, Wheat [15]: 0; Wheat plant response rating [15]: 0
